Measurements as given in publication PMC6560211, “ApoAI-derived peptide increases glucose tolerance and prevents formation of atherosclerosis in mice” (Diabetologia, 2019).
No end group written: not given here.

What was measured:
Lepr db (db/db) mice = test: GTT in db/db mice; assay type: in vivo, mouse
Description: Male C57BL/6NTac mice (Taconic, Ejby, Denmark) at 8–9 weeks of age were acclimatised for 1 week on a normal chow diet, then changed to a high-fat diet for 2 weeks (diet-induced obesity; DIO), followed by GTT as indicated. Male Lepr^db (db/db) mice on a BKS background (Taconic) at 5 weeks of age were maintained on a normal chow diet and GTTs were performed at 5.5 and 14 weeks of age as indicated. Blood glucose levels were measured in fresh blood (C57: OneTouch Ultra2, Lifescan, Milpitas, CA, USA; db/db: GlucoSmart Swing, MSP bodmann, Bobingen, Germany) and insulin levels were assayed in serum using ELISA (Mercodia) at the times indicated in ESM Fig. 2. See ESM Methods for more details.
Fig. 4 Acute treatment with RG54 improves glucose tolerance during GTTs in three models of type 2 diabetes. Male C57Bl/6 mice fed a high-fat diet for 2 weeks (a–d) or db/db mice at 5.5 (e–h) or 14 (i–l) weeks old were fasted overnight, then treated with a single i.p. injection of NaCl (negative control, 200 μl; C57, n=12; db/db 5.5 weeks, n=6; db/db 14 weeks, n=6), liraglutide (0.1 mg/kg; C57, n=11; db/db 5.5 weeks, n=6; db/db 14 weeks, n=6), ApoA-I (14 mg/kg; C57, n=12; db/db 5.5 weeks, n=6; db/db 14 weeks, n=6) or RG54 (12 mg/kg; C57, n=12; db/db 5.5 weeks, n=6; db/db 14 weeks, n=5). After a further 3 h, mice received an i.p. glucose load (40 mg/mouse for C57; 50 mg/mouse for db/db) followed by blood and plasma collection at the indicated times, and blood glucose (a,e,i) and plasma insulin (b,f,j) concentrations were determined. Total AUC was calculated (mmol/l × min for glucose, pmol/l × min for insulin) and then normalised to the average value of the relevant NaCl control group to give relative AUC (% control) for glucose (c,g,k) and insulin (d,h,l). Values are means ± SEM. *p≤0.05, **p≤0.01, ***p≤0.001 vs NaCl control […]
We next used type 2 diabetes models with a more advanced phenotype: db/db mice at 5.5 and 14 weeks of age.
At 14 weeks of age, mice were markedly obese with a mean ± SEM body weight of 55.3 ± 0.6 g. […] One mouse was excluded from RG54 treatment group because of very high residual insulin secretion prior to the experiment.
Male C57BL/6NTac mice were purchased from Taconic (Ejby, Denmark) at 8-9 weeks of age, acclimatised for one week on normal chow diet, then changed to a High-Fat Diet (HFD; Research Diets D12492, 60% fat content) for 2 weeks, followed by glucose tolerance testing (GTT) with timings as indicated (ESM Figure 2). Male Leprdb mice (db/db) on BKS background purchased from Taconic (BKS.Cg-m+/+Leprdb/BomTac, Ejby, Denmark) at 5 weeks of age were maintained on normal chow diet and GTTs were performed at 5.5 and 14 weeks of age with timings as indicated (ESM Figure 2). For the GTTs, mice fasted overnight (9 h) were injected with the appropriate treatment, and after an additional 3 h given ip glucose (C57: 40 mg/mouse; db/db: 50 mg/mouse) followed by collection of serum samples at the indicated times. Blood glucose levels were measured in fresh blood (C57: OnetouchUltra2, Lifescan; db/db: GlucoSmart Swing, MSP bodmann) and insulin levels were assayed in serum using ELISA (Mercodia). db/db mice were independently randomized to treatments groups for GTT at each time point as no carry over was expected between experiments due to the acute nature of the treatment effects. Primary outcomes were blood glucose and insulin measurements during the GTT. C57BL/6NTac mice were euthanized immediately after each experiment whereas db/db were euthanized immediately after the GTT at 14 weeks of age. […]
and reproducible clinical symptoms of diabetes than females in these models [5; 6] thus ensuring the reproducibility of clinical symptoms between animals within the study. […]

[1] = rHDL formation, particle size by DLS; conditions: 1:100 protein:lipid molar ratio, extruded 100 nm MLVs, 4 days (96 h), 24°C
Description: 1,2-dimyristoyl-sn-glycero-3-phosphocholine (DMPC; Avanti Polar Lipids, Alabaster, AL, USA) was formed into 100 nm multilamellar vesicles (MLV) via extrusion using the LiposoFast system (Avestin, Ottawa, ON, Canada) as previously described. MLV were incubated with RG54 or ApoA-I at the indicated ratios for 4 days at 24°C to form rHDL. The resulting particle sizes were measured by dynamic light scattering (DLS) using a Zetasizer APS (Malvern Instruments, Uppsala, Sweden).
The reduced initial rate may be due to a more complex binding pattern of the larger number of RG54 peptides needed per formed particle: four to five RG54 molecules (54 amino acids each) are needed to make up the size of full-length ApoA-I (243 amino acids). A qualitative assessment of particle formation was therefore next used to evaluate and compare the sizes of formed rHDL. The hydrodynamic diameters of lipid–protein complexes formed after extended incubation (96 h) of RG54 or ApoA-I with extruded 100 nm MLVs were estimated using DLS.
ESM Figure 4. Lipid clearance and peptide-lipid complex formation activity of RG54 compared with full-length ApoA-I. […]

[2] = db/db 5.5 weeks, 3 h treatment, i.p.

Ac-AEYHAKATEHLSTLSEKAKPALEDLRQGLLPVLESFKVSFLSALEEYTKKLNTQ [RG54]
fasting glucose levels (Lepr db (db/db) mice; [2]): significantly lowered
fasting insulin secretion (Lepr db (db/db) mice; [2]): no significant changes
insulin sensitivity as measured by QUICKI (Lepr db (db/db) mice; [2]): no concomitant change
glucose AUC (Lepr db (db/db) mice; db/db 14 weeks, RG54 12 mg/kg i.p., n=5, vs NaCl): no significant change
lipid-protein complexes formed (DLS frequency plots) [1]: single peaks corresponding to rHDL particles
